Assay: xn = mol fraction of the nth substance listed

CCOC(=O)CC(C)=O + CCCCO
viscosity [mPa·s], 100 kPa
Details	x1 = 0.077	x1 = 0.1552	x1 = 0.2375	x1 = 0.324	x1 = 0.4191	x1 = 0.5209	x1 = 0.6261	x1 = 0.74	x1 = 0.861
293.15 K	2.378	2.032	1.795	1.639	1.567	1.564	1.56	1.565	1.603
298.15 K	2.063	1.788	1.629	1.525	1.466	1.435	1.425	1.427	1.46

NCc1ccccc1 + C1COCCO1
303.15 K, 101 kPa
Details	viscosity [mPa·s]
x1 = 0.0802	1.116
x1 = 0.164	1.158
x1 = 0.2516	1.199
x1 = 0.3434	1.238
x1 = 0.4396	1.276
x1 = 0.5406	1.311
x1 = 0.6467	1.343
x1 = 0.7584	1.372
x1 = 0.8759	1.396

OCCO + CN1CCCC1=O
101.33 kPa
Details	viscosity [mPa·s]
298.15 K, x2 = 0.04751	15.44
298.15 K, x2 = 0.09916	13.78
298.15 K, x2 = 0.1991	10.76
298.15 K, x2 = 0.3018	8.242
298.15 K, x2 = 0.4012	6.415
298.15 K, x2 = 0.5073	4.977
298.15 K, x2 = 0.6067	3.952
298.15 K, x2 = 0.7014	3.171
298.15 K, x2 = 0.8018	2.527
298.15 K, x2 = 0.9001	2.066
298.15 K, x2 = 0.9545	1.852
308.15 K, x2 = 0.04799	10.58
308.15 K, x2 = 0.1004	9.465
308.15 K, x2 = 0.2025	7.514
308.15 K, x2 = 0.3042	5.982
308.15 K, x2 = 0.4097	4.697
308.15 K, x2 = 0.5032	3.855
308.15 K, x2 = 0.6042	3.122
308.15 K, x2 = 0.6992	2.566
308.15 K, x2 = 0.7967	2.112
308.15 K, x2 = 0.9027	1.716
308.15 K, x2 = 0.9599	1.543
318.15 K, x2 = 0.04516	7.524
318.15 K, x2 = 0.1031	6.736
318.15 K, x2 = 0.1996	5.567
318.15 K, x2 = 0.2999	4.538
318.15 K, x2 = 0.4047	3.687
318.15 K, x2 = 0.5078	3.015
318.15 K, x2 = 0.6054	2.505
318.15 K, x2 = 0.6952	2.124
318.15 K, x2 = 0.7968	1.771
318.15 K, x2 = 0.8899	1.498
318.15 K, x2 = 0.9612	1.327

CC(C)NC(C)C + CCCCCCCCO
viscosity [mPa·s], 101 kPa
Details	298.15 K	303.15 K	308.15 K
x1 = 0.0552	6.422	5.366	4.483
x1 = 0.1034	5.774	4.866	4.045
x1 = 0.1579	5.107	4.286	3.62
x1 = 0.2037	4.51	3.87	3.235
x1 = 0.2551	3.898	3.326	2.826
x1 = 0.3074	3.339	2.871	2.455
x1 = 0.4058	2.441	2.128	1.84
x1 = 0.5058	1.758	1.535	1.352
x1 = 0.606	1.265	1.143	1.046
x1 = 0.7025	0.916	0.84	0.76
x1 = 0.8044	0.664	0.616	0.58
x1 = 0.8545	0.571	0.537	0.502
x1 = 0.8931	0.509	0.487	0.452
x1 = 0.9418	0.442	0.431	0.401

CCC(=O)c1ccccc1 + CC#N
308.15 K, 101 kPa
Details	viscosity [mPa·s]
x1 = 0.0418	0.3347
x1 = 0.0922	0.3774
x1 = 0.1459	0.4272
x1 = 0.2084	0.4875
x1 = 0.2804	0.5679
x1 = 0.3757	0.6605
x1 = 0.4796	0.7806
x1 = 0.6093	0.9478
x1 = 0.7791	1.188
x1 = 0.9397	1.426

O=C1c2ccccc2C(=O)N1c1ccccc1 + c1ccncc1
Details	viscosity [mPa·s]
298.15 K, 101 kPa, x1 = 0.0129	0.9606
